Measured values reported in the supplement of paper PMC11451515.

Test system: SEM cells
Experiment: cell viability relative to DMSO control; higher = less cytotoxic
Details: 48 h
Outline: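 Viability is expressed as a percentage of DMSO wells within each plate, and cell-free wells serve as background. Seeding densities in the 1536-well plates (5 μl) were 500 cells/well for NOMO1 or SEM leukemia cells and 1000 cells/well for P12-Ichikawa. Each line was adapted for at least four passages in each medium. Library compounds in DMSO were pin-dosed at 47 μM to 0.79 nM (11 points, threefold), and CellTiter-Glo One luminescence was read after 48 h at 37°C.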

[1] = HPLM + 10% dialyzed FBS, 0.000781 µM
[2] = HPLM + 10% dialyzed FBS, 0.00234 µM
[3] = HPLM + 10% dialyzed FBS, 0.00702 µM
[4] = HPLM + 10% dialyzed FBS, 0.0211 µM
[5] = HPLM + 10% dialyzed FBS, 0.0632 µM
[6] = HPLM + 10% dialyzed FBS, 0.19 µM
[7] = HPLM + 10% dialyzed FBS, 0.569 µM
[8] = HPLM + 10% dialyzed FBS, 1.71 µM
[9] = HPLM + 10% dialyzed FBS, 5.12 µM
[10] = HPLM + 10% dialyzed FBS, 15.4 µM
[11] = HPLM + 10% dialyzed FBS, 46.1 µM
[12] = RPMI 5 mM glucose + 10% FBS, 0.000781 µM
[13] = RPMI 5 mM glucose + 10% FBS, 0.00234 µM
[14] = RPMI 5 mM glucose + 10% FBS, 0.00702 µM
[15] = RPMI 5 mM glucose + 10% FBS, 0.0211 µM
[16] = RPMI 5 mM glucose + 10% FBS, 0.0632 µM
[17] = RPMI 5 mM glucose + 10% FBS, 0.19 µM
[18] = RPMI 5 mM glucose + 10% FBS, 0.569 µM
[19] = RPMI 5 mM glucose + 10% FBS, 1.71 µM
[20] = RPMI 5 mM glucose + 10% FBS, 5.12 µM
[21] = RPMI 5 mM glucose + 10% FBS, 15.4 µM
[22] = RPMI 5 mM glucose + 10% FBS, 46.1 µM
[23] = RPMI 5 mM glucose + 10% dialyzed FBS, 0.000781 µM
[24] = RPMI 5 mM glucose + 10% dialyzed FBS, 0.00234 µM
[25] = RPMI 5 mM glucose + 10% dialyzed FBS, 0.00702 µM
[26] = RPMI 5 mM glucose + 10% dialyzed FBS, 0.0211 µM
[27] = RPMI 5 mM glucose + 10% dialyzed FBS, 0.0632 µM
[28] = RPMI 5 mM glucose + 10% dialyzed FBS, 0.19 µM
[29] = RPMI 5 mM glucose + 10% dialyzed FBS, 0.569 µM
[30] = RPMI 5 mM glucose + 10% dialyzed FBS, 1.71 µM
[31] = RPMI 5 mM glucose + 10% dialyzed FBS, 5.12 µM
[32] = RPMI 5 mM glucose + 10% dialyzed FBS, 15.4 µM
[33] = RPMI 5 mM glucose + 10% dialyzed FBS, 46.1 µM

| SMILES | cell viability [1] | cell viability [2] | cell viability [3] | cell viability [4] | cell viability [5] | cell viability [6] | cell viability [7] | cell viability [8] | cell viability [9] | cell viability [10] | cell viability [11] | cell viability [12] | cell viability [13] | cell viability [14] | cell viability [15] | cell viability [16] | cell viability [17] | cell viability [18] | cell viability [19] | cell viability [20] | cell viability [21] | cell viability [22] | cell viability [23] | cell viability [24] | cell viability [25] | cell viability [26] | cell viability [27] | cell viability [28] | cell viability [29] | cell viability [30] | cell viability [31] | cell viability [32] | cell viability [33] |
| --- | --- | --- | --- | --- | --- | --- | --- | --- | --- | --- | --- | --- | --- | --- | --- | --- | --- | --- | --- | --- | --- | --- | --- | --- | --- | --- | --- | --- | --- | --- | --- | --- | --- |
| Cc1cc(Nc2ncc3c(n2)N(C)C(=O)N(c2cc(NC(=O)c4cccc(C(F)(F)F)c4)ccc2C)C3)n(C)n1 | 88% | 105% | 101% | 88.2% | 115% | 82.3% | 50.1% | 17.8% | 10.8% | 5.81% | 3.72% | 101% | 114% | 111% | 95% | 116% | 79.4% | 40.2% | 11.9% | 7.97% | 5.5% | 3.3% | 108% | 117% | 114% | 93.8% | 128% | 81.3% | 41% | 11.5% | 6.61% | 4.65% | 2.51% |
| COc1cc(C(=O)NC2CCN(C)CC2)ccc1Nc1ncc2c(n1)N(C1CCCC1)CCC(=O)N2C(C)C | 81.4% | 95.1% | 119% | 104% | 105% | 112% | 6.04% | 104% | 94.8% | 59.1% | 13.5% | 95.4% | 106% | 119% | 130% | 119% | 120% | 6.08% | 98.1% | 96.5% | 54.2% | 55.1% | 83.4% | 109% | 117% | 120% | 112% | 111% | 5.18% | 102% | 96.5% | 53.8% | 60.8% |
| C[S+](=O)([O-])Oc1ccc2c(NC(N)=O)c(C(=O)c3ccc(Cl)cc3Cl)oc2c1 | 98.3% | 103% | 107% | 109% | 109% | 104% | 110% | 117% | 129% | 120% | 120% | 93.7% | 95.9% | 106% | 109% | 117% | 105% | 106% | 114% | 103% | 122% | 112% | 82.9% | 91.6% | 102% | 94% | 97% | 103% | 105% | 92.7% | 98.2% | 92.5% | 105% |
| CCCCCNC(=N)N/N=C/c1c[nH]c2ccc(OC)cc12 | 112% | 119% | 114% | 128% | 108% | 130% | 115% | 124% | 106% | 48% | 31.2% |  |  |  |  |  |  |  |  |  |  |  | 111% | 118% | 115% | 110% | 117% | 117% | 130% | 122% | 99.1% | 56.7% | 36.6% |
| CCOC(=O)N1CCN(/[N+]([O-])=N/Oc2cc(O/N=[N+](\[O-])N3CCN(C(=O)OCC)CC3)c([N+](=O)[O-])cc2[N+](=O)[O-])CC1 | 90.7% | 86.6% | 93% | 98.6% | 117% | 115% | 122% | 74.4% | 119% | 117% | 116% | 129% | 110% | 118% | 137% | 142% | 138% | 136% | 101% | 142% | 145% | 128% | 117% | 113% | 130% | 145% | 166% | 138% | 134% | 108% | 113% | 142% | 122% |
| Clc2cccc(Cl)c2\N=C1/NCCN1 | 76.6% | 98.6% | 28.8% | 105% | 90.8% | 116% | 119% | 108% | 114% | 122% | 113% | 92.7% | 103% | 9.62% | 119% | 106% | 115% | 105% | 112% | 112% | 119% | 110% | 93.3% | 116% | 28.5% | 126% | 131% | 132% | 127% | 130% | 131% | 117% | 138% |
| COc1cc(NCc2ccc3nc(N)nc(N)c3c2C)cc(OC)c1OC | 78.1% | 89.2% | 91.1% | 100% | 99.6% | 104% | 99.7% | 38.1% | 40.3% | 32.5% | 12.1% | 69.1% | 94.4% | 84.9% | 84.9% | 96.8% | 93.2% | 96.8% | 24.4% | 98.4% | 72.5% | 3.26% | 74.5% | 89.3% | 88.6% | 82.3% | 94.4% | 94.8% | 102% | 23.9% | 62.9% | 35.7% | 3.29% |
| COC1=CC=C(C=C1)/C2=C(O)/C(=O)C3=C(O)C=C(O)C(=C3O2)CC=C(C)C | 104% | 95.9% | 98.8% | 114% | 122% | 111% | 109% | 118% | 107% | 97.8% | 120% | 86.7% | 86.2% | 90.8% | 85.6% | 95.2% | 100% | 93.4% | 92% | 94.1% | 80.4% | 95.2% | 105% | 103% | 115% | 115% | 120% | 113% | 124% | 118% | 125% | 121% | 108% |
| CO[C@H]1/C=C/O[C@@]2(C)Oc3c(C)c(O)c4c(c3C2=O)C2=NC3(CCN(CC(C)C)CC3)NC2=C(NC(=O)/C(C)=C/C=C/[C@H](C)[C@H](O)[C@@H](C)[C@@H](O)[C@@H](C)[C@H](OC(C)=O)[C@@H]1C)C4=O | 92.6% | 80.4% | 103% | 109% | 122% | 118% | 123% | 17.8% | 122% | 108% | 105% | 116% | 114% | 133% | 133% | 153% | 144% | 135% | 10.7% | 152% | 125% | 113% | 110% | 100% | 118% | 117% | 135% | 122% | 130% | 26.7% | 123% | 93% | 99.1% |
| COCCn1c2c([n+](Cc3cnccn3)c1C)C(=O)c1ccccc1C2=O | 128% | 113% | 123% | 50.7% | 23.5% | 11.2% | 7.74% | 8.7% | 8.71% | 4.23% | 3.41% | 116% | 128% | 114% | 110% | 71.4% | 15.5% | 7.97% | 8.06% | 5.61% | 4.16% | 2.77% | 105% | 132% | 117% | 91.1% | 46.2% | 12.6% | 8.08% | 7.35% | 5.94% | 4.15% | 3.55% |
| CCNC(=O)Nc1ccc(Oc2ncnc(N)c2/C=N/OC)cc1Cl | 96.9% | 100% | 99.8% | 105% | 110% | 112% | 117% | 73.5% | 78.5% | 68.1% | 83.1% | 75.3% | 84.1% | 75.5% | 78.7% | 74.9% | 79.5% | 70.5% | 37.4% | 70% | 44.8% | 56.8% | 99.5% | 103% | 111% | 111% | 108% | 117% | 111% | 55.9% | 75.4% | 56% | 74.7% |
| c1cc(-c2cnn3cc(-c4ccc(OCCN5CCCCC5)cc4)cnc23)ccn1 | 69.3% | 58.4% | 94.8% | 34.4% | 32.7% | 31.1% | 27.9% | 96.2% | 88.5% | 8.18% | 30.9% | 103% | 76.7% | 121% | 63.7% | 51.6% | 43.4% | 34.8% | 103% | 105% | 40.4% | 23.3% | 91.5% | 60.9% | 99.8% | 45.4% | 31.8% | 24% | 25.9% | 90% | 78.4% | 42.2% | 23.7% |
| OC1=CC=C(C=C1)C/2=C/C3=C(OC2)C=C(O)C=C3 | 107% | 111% | 112% | 109% | 114% | 120% | 101% | 84.9% | 21.2% | 2.3% | 1.5% | 108% | 117% | 122% | 115% | 109% | 106% | 80.8% | 93.1% | 23.7% | 1.46% | 1.13% | 111% | 107% | 125% | 90.8% | 99.1% | 108% | 85.5% | 89.1% | 25% | 2.21% | 1.74% |
| COc1ccc(CCC(=O)c2c(O)cc(O[C@@H]3O[C@H](CO)[C@@H](O)[C@H](O)[C@H]3O[C@@H]3O[C@@H](C)[C@H](O)[C@@H](O)[C@H]3O)cc2O)cc1O | 112% | 115% | 120% | 128% | 128% | 119% | 128% | 119% | 134% | 124% | 116% |  |  |  |  |  |  |  |  |  |  |  |  |  |  |  |  |  |  |  |  |  |  |
| NC1=NC(=O)N2CC12 (configuration not stated) | 84.2% | 79.8% | 87.7% | 86.3% | 87.2% | 76.5% | 94.9% | 60.6% | 34.9% | 3.13% | 2.28% | 106% | 82.3% | 86.8% | 104% | 85.1% | 82.6% | 85.2% | 43% | 25.6% | 2.22% | 2.07% | 77.3% | 79.6% | 82.5% | 78.7% | 79.3% | 69.3% | 84.1% | 51.4% | 23.9% | 1.65% | 1.54% |
